Source: patent US20250011313A1, “CCR6 RECEPTOR MODULATORS” (Idorsia Pharmaceuticals Ltd, priority 2021, published 2025)

What follows are compounds tested against T1, human CCR6 (Homo sapiens, UniProt P51684) (assay: FLIPR assay (calcium flux, inhibition of CCL20 agonist response)). Conditions: HEK-293 cells expressing human CCR6; agonist CCL20 10 nM; 30 min preincubation; mean values if determined several times.
T1 construct: expressed in transfected cells; host or cells: HEK-293
T1 sequence (P51684 1-374): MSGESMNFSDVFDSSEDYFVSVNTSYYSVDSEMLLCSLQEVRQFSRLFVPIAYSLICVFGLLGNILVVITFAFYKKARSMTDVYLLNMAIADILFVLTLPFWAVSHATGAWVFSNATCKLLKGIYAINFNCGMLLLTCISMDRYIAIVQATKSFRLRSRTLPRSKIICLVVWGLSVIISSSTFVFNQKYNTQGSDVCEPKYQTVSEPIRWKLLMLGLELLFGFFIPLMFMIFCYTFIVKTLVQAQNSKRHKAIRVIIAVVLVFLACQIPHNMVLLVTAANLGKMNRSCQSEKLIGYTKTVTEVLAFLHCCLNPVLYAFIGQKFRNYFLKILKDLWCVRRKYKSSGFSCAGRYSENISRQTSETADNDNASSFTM
Type: cell-based
Protocol: FLIPR assay: The bioactivity of compounds is tested in a fluorometric imaging plate reader (FLIPR: Molecular Devices) using engineered HEK-293 cells expressing the human CCR6 (GenBank: AY242126). Frozen cells are plated on Poly-L-Lysine precoated 384-well plates 2 days prior to bioassay in DMEM medium supplemented with 10% FCS and 1% Penicillin-Streptomycin. At the day of bioassay, cell supernatant is discarded and cells are dye loaded for 30 minutes at room temperature in the dark with Fluo-8-AM (Focus Biomolecules) in Hanks Balanced Salt Solution (Gibco), buffered with 20 mM Hepes at pH 6.75 and supplemented with 0.05% BSA. This buffer, but lacking the dye, is also used for washing and compound dilution steps (assay buffer). Cells are washed free of excess dye with a wash-station (Biotek), leaving 40 microliter of assay buffer at the end. Cells were incubated for 15 minutes at room temperature in the dark, before adding compounds. Stock solutions of test compounds are made up at a concentration of 10 mM in DMSO, and serially diluted first in DMSO and then transferred in assay buffer to concentrations required for inhibition dose response curves. After a 45 minute incubation period in assay buffer at room temperature, 10 microliters of each compound dilution are transferred from a compound plate to the plate containing the recombinant cells in the FLIPR instrument according to the manufacturer's instructions. After cells and compounds were preincubated for 30 minutes at room temperature in the dark, 10 microliter agonist CCL20 (Peprotech) at a final concentration of 10 nM is added, again using the FLIPR instrument. Changes in fluorescence are monitored before and after addition of the test compounds and agonist. Emission peak values above base level after CCL20 addition are exported after base line subtraction. The calculated IC50 values may fluctuate depending on the daily assay performance. Fluctuations of this kind are known to those skilled in the art. In the case where IC50 values have been determined several times for the same compound, mean values are given.
`CC(=O)NC1CCC(c2nc(-c3cncc([C@@](O)(c4ccc(C(C)C)cc4)C4(C)CN(C)C4)c3)no2)CC1` (single isomer, unassigned) [Example 8, cis- or trans-N-[4-(3-{5-[(R)-(1,3-Dimethyl-azetidin-3-yl)-hydroxy-(4-isopropyl-phenyl)-methyl]-pyridin-3-yl}-[1,2,4]oxadiazol-5-yl)-cyclohexyl]-acetamide] was tested, and the IC50 was 52.2 nM. For `CC(C)c1ccc([C@](O)(c2cncc(C#CC(C)(O)c3ccncn3)c2)C2(C)CN(C)C2)cc1` (single isomer, unassigned) [Example 10, (R)- or (S)-4-{5-[(R)-(1,3-Dimethyl-azetidin-3-yl)-hydroxy-(4-isopropyl-phenyl)-methyl]-pyridin-3-yl}-2-pyrimidin-4-yl-but-3-yn-2-ol], the IC50 was 71.5 nM. `CN1CC(C)([C@](O)(c2ccc(CC(F)(F)F)cc2)c2cncc(-c3noc([C@H]4CC[C@H](O)CC4)n3)c2)C1` [Example 1, trans-4-[3-(5-{(R)-(1,3-Dimethyl-azetidin-3-yl)-hydroxy-[4-(2,2,2-trifluoro-ethyl)-phenyl]-methyl}-pyridin-3-yl)-[1,2,4]oxadiazol-5-yl]-cyclohexanol] gave an IC50 of 83 nM. For `CN1CC(C)([C@](O)(c2ccc(CC(F)(F)F)cc2)c2cncc(-c3noc(C45CC(CO)(C4)C5)n3)c2)C1` [Example 2, (R)-(1,3-Dimethyl-azetidin-3-yl)-{5-[5-(3-hydroxymethyl-bicyclo[1.1.1]pent-1-yl)-[1,2,4]oxadiazol-3-yl]-pyridin-3-yl}-[4-(2,2,2-trifluoro-ethyl)-phenyl]-methanol], the IC50 was 140 nM. For `CC(=O)NC12CC(c3nc(-c4cncc([C@@](O)(c5ccc(C(C)C)cc5)C5(C)CN(C)C5)c4)no3)(C1)C2` [Example 3, N-[3-(3-{5-[(R)-(1,3-Dimethyl-azetidin-3-yl)-hydroxy-(4-isopropyl-phenyl)-methyl]-pyridin-3-yl}-[1,2,4]oxadiazol-5-yl)-bicyclo[1.1.1]pent-1-yl]-acetamide], the IC50 was 55.7 nM. Work on `CC(C)c1ccc([C@](O)(c2cncc(-c3noc(C45CCC(O)(CC4)CC5)n3)c2)C2(C)CN(C)C2)cc1` [Example 4, 4-(3-{5-[(R)-(1,3-Dimethyl-azetidin-3-yl)-hydroxy-(4-isopropyl-phenyl)-methyl]-pyridin-3-yl}-[1,2,4]oxadiazol-5-yl)-bicyclo[2.2.2]octan-1-ol] yielded an IC50 of 23.9 nM. `CN1CC(C)([C@](O)(c2ccc(CC(F)(F)F)cc2)c2cncc(-c3nc(C(C)(C)CO)no3)c2)C1` [Example 5, 2-[5-(5-{(R)-(1,3-Dimethyl-azetidin-3-yl)-hydroxy-[4-(2,2,2-trifluoro-ethyl)-phenyl]-methyl}-pyridin-3-yl)-[1,2,4]oxadiazol-3-yl]-2-methyl-propan-1-ol] was tested, and the IC50 was 144 nM. In the case of `CC(=O)N1CC2(CC(c3nc(-c4cncc([C@@](O)(c5ccc(C(C)C)cc5)C5(C)CN(C)C5)c4)no3)C2)C1` [Example 6, 1-[6-(3-{5-[(R)-(1,3-Dimethyl-azetidin-3-yl)-hydroxy-(4-isopropyl-phenyl)-methyl]-pyridin-3-yl}-[1,2,4]oxadiazol-5-yl)-2-aza-spiro[3.3]hept-2-yl]-ethanone], the IC50 is reported as 111 nM. Work on `CCC(=O)N[C@H]1CC[C@H](c2nc(-c3cncc([C@@](O)(c4ccc(C(C)C)cc4)C4(C)CN(C)C4)c3)no2)CC1` [Example 7, trans-N-[4-(3-{5-[(R)-(1,3-Dimethyl-azetidin-3-yl)-hydroxy-(4-isopropyl-phenyl)-methyl]-pyridin-3-yl}-[1,2,4]oxadiazol-5-yl)-cyclohexyl]-propionamide] yielded an IC50 of 78.8 nM. With `CN1CC(C)([C@](O)(c2ccc(CC(F)(F)F)cc2)c2cncc(-c3nc(C45CC(CO)(C4)C5)no3)c2)C1` [Example 9, (R)-(1,3-Dimethyl-azetidin-3-yl)-{5-[3-(3-hydroxymethyl-bicyclo[1.1.1]pent-1-yl)-[1,2,4]oxadiazol-5-yl]-pyridin-3-yl}-[4-(2,2,2-trifluoro-ethyl)-phenyl]-methanol] the IC50 was 146 nM. For `CC(C)c1ccc([C@](O)(c2cncc(C#C[C@H]3CC[C@H](O)CC3)c2)C2(C)CN(C)C2)cc1` [Example 11, trans-4-{5-[(R)-(1,3-Dimethyl-azetidin-3-yl)-hydroxy-(4-isopropyl-phenyl)-methyl]-pyridin-3-ylethynyl}-cyclohexanol], the IC50 was 28.7 nM. `CC(C)c1ccc([C@](O)(c2cncc(C#C[C@H]3CC[C@@H](O)CC3)c2)C2(C)CN(C)C2)cc1` [Example 12, cis-4-{5-[(R)-(1,3-Dimethyl-azetidin-3-yl)-hydroxy-(4-isopropyl-phenyl)-methyl]-pyridin-3-ylethynyl}-cyclohexanol] showed an IC50 of 25.4 nM. `CC(C)c1ccc([C@](O)(c2cncc(-c3noc(C45CCC(C(N)=O)(CC4)CC5)n3)c2)C2(C)CN(C)C2)cc1` [Example 13, 4-(3-{5-[(R)-(1,3-Dimethyl-azetidin-3-yl)-hydroxy-(4-isopropyl-phenyl)-methyl]-pyridin-3-yl}-[1,2,4]oxadiazol-5-yl)-bicyclo[2.2.2]octane-1-carboxylic acid amide] was tested, and the IC50 was 37.5 nM. `CC(C)c1ccc([C@](O)(c2cncc(-c3noc(C4CCC(C(N)=O)CC4)n3)c2)C2(C)CN(C)C2)cc1` (stereo partly drawn) [Example 14, 4-(3-{5-[(R)-(1,3-Dimethyl-azetidin-3-yl)-hydroxy-(4-isopropyl-phenyl)-methyl]-pyridin-3-yl}-[1,2,4]oxadiazol-5-yl)-cyclohexanecarboxylic acid amide] gave an IC50 of 46.3 nM. Compound `CN1CC(C)([C@](O)(c2ccc(CC(F)(F)F)cc2)c2cncc(-c3noc(C45CCC(C(N)=O)(CC4)CC5)n3)c2)C1` [Example 15, 4-[3-(5-{(R)-(1,3-Dimethyl-azetidin-3-yl)-hydroxy-[4-(2,2,2-trifluoro-ethyl)-phenyl]-methyl}-pyridin-3-yl)-[1,2,4]oxadiazol-5-yl]-bicyclo[2.2.2]octane-1-carboxylic acid amide] has an IC50 of 65.3 nM. Work on `CC(=O)N[C@H]1CC[C@H](c2nc(-c3cncc([C@@](O)(c4ccc(CC(F)(F)F)cc4)C4(C)CN(C)C4)c3)no2)CC1` [Example 16, N-{4-[3-(5-{(R)-(1,3-Dimethyl-azetidin-3-yl)-hydroxy-[4-(2,2,2-trifluoro-ethyl)-phenyl]-methyl}-pyridin-3-yl)-[1,2,4]oxadiazol-5-yl]-trans-cyclohexyl}-acetamide] yielded an IC50 of 226 nM.
